Assays:
Format in all cases: cell-based
[1] = target: T1, Human adrenergic α1B receptor (Homo sapiens, UniProt P35368); assay: β-Arrestin GPCR functional assay, adrenergic α1B (Protocol B); conditions: for IC50: β-arrestin, antagonist vs nor-epinephrine EC80; for inhibition at 0.1 µM / inhibition at 0.3 µM / Percentage inhibition, Adrenergic α1B: nor-epinephrine at EC80 (50 nM); for inhibition at 0.1 µM / inhibition at 0.3 µM: read-out: Percentage inhibition, Adrenergic α1B
T1 sequence (P35368 1-520): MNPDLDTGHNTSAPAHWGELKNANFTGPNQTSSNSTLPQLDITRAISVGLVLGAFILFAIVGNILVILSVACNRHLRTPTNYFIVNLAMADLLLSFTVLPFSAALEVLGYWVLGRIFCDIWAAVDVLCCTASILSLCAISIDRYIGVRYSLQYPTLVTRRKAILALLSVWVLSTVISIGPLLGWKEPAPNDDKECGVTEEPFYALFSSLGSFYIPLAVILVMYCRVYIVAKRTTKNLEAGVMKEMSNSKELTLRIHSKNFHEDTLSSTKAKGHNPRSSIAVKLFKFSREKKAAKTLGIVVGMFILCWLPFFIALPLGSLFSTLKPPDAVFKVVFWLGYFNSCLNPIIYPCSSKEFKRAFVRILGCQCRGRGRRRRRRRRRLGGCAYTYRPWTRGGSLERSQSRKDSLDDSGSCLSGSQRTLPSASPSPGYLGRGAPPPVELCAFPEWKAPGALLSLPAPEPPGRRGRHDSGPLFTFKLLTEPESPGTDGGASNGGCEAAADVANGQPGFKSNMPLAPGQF
Description: (§1) To evaluate the activity of compounds in β-Arrestin GPCR functional assays, recombinant CHO cell line (DiscoveRX), over expressed with human adrenergic α1B receptor were used. The experiment was done with a kit of DiscoveRX as per recommended protocol of the supplier. Cells were harvested from culture flask using cell dissociation solution (CDS) and plated at a density of 12,000 cells/well in CP reagent (supplied with the kit) in a half area 96-well white polystyrene plate. After 24 h incubation at 37° C., compounds at various concentrations in 1% (final) DMSO were charged to the cells for 30 min at 37° C. Active nor-epinephrine (-NE) at its EC80 concentrations (50 nM) were then added to the cells and incubated for another 90 min at 37° C. Detection mix was prepared by mixing Path Hunter cell assay buffer, Emerald II solution and Galactone star solution in a ratio of 19:5:1 and incubated with the cells for 60 min at RT in the dark. The reading was taken in Envision at luminescence mode. Biochemical assay results are presented as the percent Inhibition in Table B2a, or IC50 values in Table B2b.

[2] = target: T2, Human adrenergic α2B receptor (Homo sapiens, UniProt P18089); assay: β-Arrestin GPCR functional assay, adrenergic α2B (Protocol B); conditions: for IC50: β-arrestin, antagonist vs nor-epinephrine EC80, read-out: IC50 Adrenergic α2B; for Percentage inhibition, Adrenergic α2B / inhibition at 0.03 µM / inhibition at 0.1 µM / inhibition at 0.01 µM: nor-epinephrine at EC80 (50 nM); for inhibition at 0.03 µM / inhibition at 0.1 µM / inhibition at 0.01 µM: read-out: Percentage inhibition, Adrenergic α2B
T2 sequence (P18089 1-450): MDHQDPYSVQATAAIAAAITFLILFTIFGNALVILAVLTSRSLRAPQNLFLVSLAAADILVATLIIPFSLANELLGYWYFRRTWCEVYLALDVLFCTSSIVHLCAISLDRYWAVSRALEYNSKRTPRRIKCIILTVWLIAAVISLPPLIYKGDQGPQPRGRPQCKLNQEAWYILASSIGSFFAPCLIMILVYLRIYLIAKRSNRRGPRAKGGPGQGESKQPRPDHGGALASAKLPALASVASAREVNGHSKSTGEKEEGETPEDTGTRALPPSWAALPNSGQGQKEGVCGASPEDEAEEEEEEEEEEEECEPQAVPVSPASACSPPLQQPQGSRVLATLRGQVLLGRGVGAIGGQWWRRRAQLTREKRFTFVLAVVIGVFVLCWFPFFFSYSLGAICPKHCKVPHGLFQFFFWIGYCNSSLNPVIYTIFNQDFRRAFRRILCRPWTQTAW
How it was run: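 CHO cells overexpressing human α2B (PathHunter β-arrestin), 12,000 per well, 24 h at 37° C; compounds in 1% DMSO 30 min, then 50 nM norepinephrine (EC80) 90 min at 37° C.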

[3] = target: T3, Human adrenergic α2A receptor (Homo sapiens, UniProt P08913); assay: β-Arrestin GPCR functional assay, adrenergic α2A (Protocol B); conditions: for IC50: β-arrestin, antagonist vs nor-epinephrine EC80; for inhibition at 0.1 µM / inhibition at 0.3 µM / Percentage inhibition, Adrenergic α2A: nor-epinephrine at EC80 (270 nM); for inhibition at 0.1 µM / inhibition at 0.3 µM: read-out: Percentage inhibition, Adrenergic α2A
T3 sequence (P08913 1-465): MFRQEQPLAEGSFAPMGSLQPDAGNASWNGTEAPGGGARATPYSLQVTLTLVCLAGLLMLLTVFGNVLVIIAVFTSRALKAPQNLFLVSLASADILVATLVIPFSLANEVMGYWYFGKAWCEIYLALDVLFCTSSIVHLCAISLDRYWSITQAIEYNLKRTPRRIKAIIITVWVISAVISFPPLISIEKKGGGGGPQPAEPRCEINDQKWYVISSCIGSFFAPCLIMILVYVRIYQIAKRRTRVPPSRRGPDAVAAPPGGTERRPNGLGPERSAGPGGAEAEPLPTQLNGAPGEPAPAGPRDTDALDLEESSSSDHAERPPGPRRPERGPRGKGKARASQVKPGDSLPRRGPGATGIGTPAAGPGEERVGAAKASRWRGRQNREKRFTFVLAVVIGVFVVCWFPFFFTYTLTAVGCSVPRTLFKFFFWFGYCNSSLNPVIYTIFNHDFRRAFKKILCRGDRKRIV
Description: as §1, with “α2A” for “α1B”, “with” for “with a”, “(270” for “(50”, “mixing of” for “mixing”

IC50 [1] [nM]	IC50 [2] [nM]	IC50 [3] [nM]	other results	Structure (SMILES)
662	163	6080	–	Cc1ccc2c(c1)c1c(n2CC(OC(=O)N2CCCC2)c2ccncc2)CCN(C)C1 (single isomer, unassigned) [4b]
121	24	1790	–	Cc1ccc2c(c1)c1c(n2CC(C)(O)c2ccc(F)nc2)CCN2CCCC12 (single isomer, unassigned) [6a]
100	30	2240	inhibition at 0.1 µM ([1]; 0.1 μM compound): 49%; inhibition at 0.3 µM ([1]; 0.3 μM compound): 74%; Percentage inhibition, Adrenergic α2B ([2]; 10 nM compound): 9%; inhibition at 0.03 µM ([2]; 30 nM compound): 29%; inhibition at 0.1 µM ([2]; 0.1 μM compound): 88%; inhibition at 0.1 µM ([3]; 0.1 μM compound): 14%; inhibition at 0.3 µM ([3]; 0.3 μM compound): 21%	Cc1ccc2c(c1)c1c(n2CC(C)(O)c2ccncc2)CCN2CCCC12 (single isomer, unassigned) [13a]
150	12	806	Percentage inhibition, Adrenergic α1B ([1]; 0.1 μM compound): 32%; Percentage inhibition, Adrenergic α1B ([1]; 0.3 μM compound): 61%; Percentage inhibition, Adrenergic α2B ([2]; 10 nM compound): 4%; Percentage inhibition, Adrenergic α2B ([2]; 30 nM compound): 30%; Percentage inhibition, Adrenergic α2B ([2]; 0.1 μM compound): 102%; Percentage inhibition, Adrenergic α2A ([3]; 0.1 μM compound): 23%; Percentage inhibition, Adrenergic α2A ([3]; 0.3 μM compound): 30%	Cc1ccc2c(c1)c1c(n2CC(C)(O)c2ccncc2)CCN2CCCC12 (single isomer, unassigned) [13b]
99	124	–	Percentage inhibition, Adrenergic α1B ([1]; 0.1 μM compound): 49%; inhibition at 0.3 µM ([1]; 0.3 μM compound): 76%; inhibition at 0.01 µM ([2]; 10 nM compound): 13%; Percentage inhibition, Adrenergic α2B ([2]; 30 nM compound): 9%; Percentage inhibition, Adrenergic α2B ([2]; 0.1 μM compound): 41%; Percentage inhibition, Adrenergic α2A ([3]; 0.1 μM compound): −1%; Percentage inhibition, Adrenergic α2A ([3]; 0.3 μM compound): −2%	Cc1ccc2c(c1)c1c(n2CC(O)c2ccncc2F)CCN2CCCC12 (single isomer, unassigned) [14a]
25	14	424	Percentage inhibition, Adrenergic α1B ([1]; 0.1 μM compound): 76%; Percentage inhibition, Adrenergic α1B ([1]; 0.3 μM compound): 86%; Percentage inhibition, Adrenergic α2B ([2]; 10 nM compound): 11%; Percentage inhibition, Adrenergic α2B ([2]; 30 nM compound): 93%; Percentage inhibition, Adrenergic α2B ([2]; 0.1 μM compound): 97%; Percentage inhibition, Adrenergic α2A ([3]; 0.1 μM compound): 13%; Percentage inhibition, Adrenergic α2A ([3]; 0.3 μM compound): 44%	Cc1ccc2c(c1)c1c(n2CC(O)c2ccncc2F)CCN2CCCC12 (single isomer, unassigned) [14b]
357	13	2780	inhibition at 0.1 µM ([1]; 0.1 μM compound): 19%; inhibition at 0.3 µM ([1]; 0.3 μM compound): 46%; inhibition at 0.01 µM ([2]; 10 nM compound): 37%; inhibition at 0.03 µM ([2]; 30 nM compound): 94%; inhibition at 0.1 µM ([2]; 0.1 μM compound): 103%; inhibition at 0.1 µM ([3]; 0.1 μM compound): 14%; inhibition at 0.3 µM ([3]; 0.3 μM compound): 18%	OC(Cn1c2c(c3cc(F)ccc31)C1CCCN1CC2)c1ccncc1 (single isomer, unassigned) [18b]
107	18	1260	inhibition at 0.1 µM ([1]; 0.1 μM compound): 45%; Percentage inhibition, Adrenergic α1B ([1]; 0.3 μM compound): 74%; Percentage inhibition, Adrenergic α2B ([2]; 10 nM compound): 33%; Percentage inhibition, Adrenergic α2B ([2]; 30 nM compound): 71%; inhibition at 0.1 µM ([2]; 0.1 μM compound): 101%; inhibition at 0.1 µM ([3]; 0.1 μM compound): 13%; inhibition at 0.3 µM ([3]; 0.3 μM compound): 23%	Cc1cc(C)c2c(c1)c1c(n2CC(C)(O)c2ccncc2)CCN2CCCC12 (single isomer, unassigned) [19a]
351	52	5010	Percentage inhibition, Adrenergic α1B ([1]; 0.1 μM compound): 25%; Percentage inhibition, Adrenergic α1B ([1]; 0.3 μM compound): 52%; Percentage inhibition, Adrenergic α2B ([2]; 10 nM compound): 15%; Percentage inhibition, Adrenergic α2B ([2]; 30 nM compound): 34%; Percentage inhibition, Adrenergic α2B ([2]; 0.1 μM compound): 86%; Percentage inhibition, Adrenergic α2A ([3]; 0.1 μM compound): 24%; Percentage inhibition, Adrenergic α2A ([3]; 0.3 μM compound): 20%	Cc1cc(C)c2c(c1)c1c(n2CC(C)(O)c2ccncc2)CCN2CCCC12 (single isomer, unassigned) [19b]
982	87	11400	–	CC(O)(Cn1c2c(c3cc(F)ccc31)C1CCCN1CC2)c1ccncc1 (single isomer, unassigned) [31a]
782	66	11300	–	CC(O)(Cn1c2c(c3cc(F)ccc31)C1CCCN1CC2)c1ccncc1 (single isomer, unassigned) [31b]
672	255	2390	–	Cc1ccc2c(c1)c1c(n2CC(OC2CCCC2)c2ccncc2)CCN(C)C1 (single isomer, unassigned) [35a]
636	181	3310	–	CCCOC(Cn1c2c(c3cc(C)ccc31)CN(C)CC2)c1ccncc1 (single isomer, unassigned) [42a]
1140	41	5220	–	CCCOC(Cn1c2c(c3cc(C)ccc31)CN(C)CC2)c1ccncc1 (single isomer, unassigned) [42b]
670	119	3570	–	CCOC(Cn1c2c(c3cc(C)ccc31)CN(C)CC2)c1ccncc1 (single isomer, unassigned) [43a]
1090	91	7340	–	CCOC(Cn1c2c(c3cc(C)ccc31)CN(C)CC2)c1ccncc1 (single isomer, unassigned) [43b]
–	34	2670	–	Cc1cc(F)c2c(c1)c1c(n2CC(C)(O)c2cccnc2)CCN2CCCC12 (single isomer, unassigned) [79b]
–	10.6	896	–	Cc1cc(F)cc2c3c(n(CC(O)c4ccncc4)c12)CCN1CCCC31 (single isomer, unassigned) [136a]
–	12	678	–	Cc1cc(F)c2c(c1)c1c(n2CC(C)(O)c2cccnc2)CCN2CCCC12 (stereo not drawn) [Compound No. 79a]

Reference: patent publication US20150315188A1, “COMPOUNDS AND METHODS FOR TREATMENT OF HYPERTENSION” (MEDIVATION TECHNOLOGIES, INC., priority 2012, published 2015)
